Laboratory results taken from US8921372B2, “Inhibitors of hepatitis C virus” (Theravance Biopharma R&D IP, LLC, priority 2010, dated 2014).
Read-outs that look alike come from different tables or passages of the source.

Assays:
[1] = tested on: HCV genotype 1b replicon cell line (APC144; Huh7 cell background); assay: HCV Genotype 1b Replicon Assay (Renilla luciferase readout); type: cell-based; settings: Hepatitis C virus, Huh-7; read-out: Genotype 1b (pEC50 class, HCV genotype 1b replicon assay) (converted)
How it was run: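 Huh7-derived APC144 subgenomic replicon cells carrying Renilla luciferase–NS3-NS5B, seeded 10,000/well without G418, then treated with compound dose-responses for 48 h at 37 °C (0.5% DMSO final). Luciferase signal fitted by 4-parameter model to EC50, reported as pEC50.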

[2] = tested on: HCV genotype 1a replicon cell line (APC89; Huh7.5 cell background); assay: HCV Genotype 1a Replicon Assay (NS3-specific protease activity readout); type: cell-based; settings: Hepatitis C virus
How it was run: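 Genotype 1a subgenomic replicon cells (APC89, Huh7.5) were treated with compound dose-responses in G418-free medium, 0.5% DMSO final, for 48 or 72 hours at 37° C. Lysate NS3/4a protease activity measured with 15 μM FRET substrate, 20 min at 37° C (ex 340/em 509 nm); EC50 by 4-parameter fit.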

[3] = 72 hour incubation, read-out: Genotype 1a (pEC50 class, HCV genotype 1a replicon assay) (converted)
[4] = compounds incubated for 48 hours, read-out: Genotype 1a (pEC50 class, HCV genotype 1a replicon assay), * results (converted)

Row | SMILES | EC50 [1] [nM] | EC50 [2, 3] [nM] | EC50 [2, 4] [nM]
1 | CNC(=O)N1CCC[C@@]1(C)C(=O)N1CCN(c2ccc(C(=O)Nc3cc(OC(F)(F)F)c(-c4ccc(-c5c[nH]c([C@@H]6CCCN6C(=O)[C@@H](NC(=O)OC)C(C)C)n5)cc4)cc3Cl)cn2)[C@H](C)C1 [Example 27-73] | < 0.1 | < 0.1 | –
2 | COC(=O)N[C@H](C(=O)N1CCC[C@H]1c1nc(-c2ccc(-c3cc(Cl)c(NC(=O)c4ccc(N5C[C@H](C)N(C(=O)c6c[nH]cn6)C[C@H]5C)nc4)cc3OC(F)(F)F)cc2)c[nH]1)C(C)C [Example 28-39] | < 0.1 | < 0.1 | –
3 | COC(=O)N[C@H](C(=O)N1CCC[C@H]1c1nc(-c2ccc(-c3ccc(C(=O)Nc4ccc(N5CCN(C(=O)[C@]6(C)CCCN6C(=O)[C@@H](NC(=O)OC)C(C)C)C[C@H]5C)nc4)cc3OC(F)(F)F)cc2)c[nH]1)C(C)C [Example 56] | < 0.1 | 0.1 to 1 | –
4 | COC(=O)N[C@H](C(=O)N1CCC[C@H]1c1nc(-c2ccc(-c3ccc(NC(=O)c4ccc(N5CCN(C(=O)C6CC6)C[C@H]5C)nc4)cc3C(F)(F)F)cc2)c[nH]1)C(C)C [Example 35] | < 0.1 | 0.1 to 1 | –
5 | CNC(=O)N1CCN(c2ccc(C(=O)Nc3ccc(-c4ccc(-c5c[nH]c([C@@H]6CCCN6C(=O)[C@@H](NC(=O)OC)C(C)C)n5)cc4)cc3)cn2)CC1 [Example 10, ((S)-2-Methyl-1-{(S)-2-[4-(4′-{[6-(4-methylcarbamoyl-piperazin-1-yl)-pyridine-3-carbonyl]-amino}-biphenyl-4-yl)-1H-imidazol-2-yl]-pyrrolidine-1-carbonyl}-propyl)-carbamic acid methyl ester] | < 0.1 | – | 0.1 to 1
6 | COC(=O)N[C@H](C(=O)N1CCC[C@H]1c1nc(-c2ccc(-c3cc(F)c(NC(=O)c4ccc(N5CCN(C(=O)Cn6cccn6)C[C@H]5C)nc4)cc3OC(F)(F)F)cc2)c[nH]1)C(C)C [Example 27-36] | < 0.1 | < 0.1 | –
7 | COC(=O)N[C@H](C(=O)N1CCC[C@H]1c1nc(-c2ccc(-c3cc(Cl)c(NC(=O)c4ccc(N5CCN(C(=O)[C@]6(C)CCCN6C(=O)[C@@H](NC(=O)OC)C(C)C)C[C@H]5C)nc4)cc3C(F)(F)F)cc2)c[nH]1)C(C)C [Example 62] | < 0.1 | < 0.1 | –
8 | COC(=O)N[C@H](C(=O)N1CCC[C@H]1c1nc(-c2ccc(-c3cc(Cl)c(NC(=O)c4ccc(N5CCN(C(=O)[C@H]6CC6(C)C)C[C@H]5C)nc4)cc3C(F)(F)F)cc2)c[nH]1)C(C)C [Example 61, [(S)-1-((S)-2-{4-[5′-Chloro-4′-({6-[(R)-4-((S)-2,2-dimethyl-cyclopropanecarbonyl)-2-methyl-piperazin-1-yl]-pyridine-3-carbonyl}-amino)-2′-trifluoromethyl-biphenyl-4-yl]-1H-imidazol-2-yl}-pyrrolidine-1-carbonyl)-2-methyl-propyl]-carbamic acid methyl ester] | < 0.1 | < 0.1 | –
9 | COCC(=O)N1CCC[C@@]1(C)C(=O)N1CCN(c2ccc(NC(=O)c3ccc(-c4ccc(-c5c[nH]c([C@@H]6CCCN6C(=O)[C@@H](NC(=O)OC)C(C)C)n5)cc4)c(OC(F)(F)F)c3)cn2)[C@H](C)C1 [Example 66] | < 0.1 | < 0.1 | –
10 | CNC(=O)N1CCN(c2ccc(C(=O)Nc3ccc(-c4ccc(-c5c[nH]c([C@@H]6CCCN6C(=O)[C@@H](NC(=O)OC)C(C)C)n5)cc4)c(C(F)(F)F)c3)cn2)[C@H](C)C1 [Example 36] | < 0.1 | 0.1 to 1 | –
11 | COCCNC(=O)N1CCN(c2ccc(C(=O)Nc3cc(OC(F)(F)F)c(-c4ccc(-c5c[nH]c([C@@H]6CCCN6C(=O)[C@@H](NC(=O)OC)C(C)C)n5)cc4)cc3F)cn2)[C@H](C)C1 [Example 27-38] | < 0.1 | < 0.1 | –
12 | COCCNC(=O)N1CCC[C@@]1(C)C(=O)N1CCN(c2ccc(C(=O)Nc3cc(OC(F)(F)F)c(-c4ccc(-c5c[nH]c([C@@H]6CCCN6C(=O)[C@@H](NC(=O)OC)C(C)C)n5)cc4)cc3F)cn2)[C@H](C)C1 [Example 27-45] | < 0.1 | < 0.1 | –
13 | COC(=O)N[C@H](C(=O)N1CCC[C@H]1c1nc(-c2ccc(-c3ccc(C(=O)Nc4ccc(N5CCN(C(=O)OC(C)(C)C)CC5)cc4)cc3)cc2)c[nH]1)C(C)C [Example 6, 4-{4-[(4′-{2-[(S)-1-((S)-2-Methoxycarbonylamino-3-methyl-butyryl)-pyrrolidin-2-yl]-1H-imidazol-4-yl}-biphenyl-4-carbonyl)-amino]-phenyl}-piperazine-1-carboxylic acid tert-butyl ester] | < 0.1 | – | 10 to 100
14 | COC(=O)N[C@H](C(=O)N1CCC[C@H]1c1nc(-c2ccc(-c3c(F)cc(NC(=O)c4ccc(N5CCN(C(=O)[C@H]6CC6(C)C)C[C@H]5C)nc4)cc3F)cc2)c[nH]1)C(C)C [Example 41, [(S)-1-((S)-2-{5-[4′-({6-[(R)-4-((S)-2,2-Dimethyl-cyclopropanecarbonyl)-2-methyl-piperazin-1-yl]-pyridine-3-carbonyl}-amino)-2′,6′-difluoro-biphenyl-4-yl]-1H-imidazol-2-yl}-pyrrolidine-1-carbonyl)-2-methyl-propyl]-carbamic acid methyl ester] | < 0.1 | < 0.1 | –
15 | COC(=O)N[C@H](C(=O)N1CCC[C@H]1c1nc(-c2ccc(-c3cc(F)c(NC(=O)c4ccc(N5C[C@H](C)N(C(=O)c6cc[nH]n6)C[C@H]5C)nc4)cc3OC(F)(F)F)cc2)c[nH]1)C(C)C [Example 60] | < 0.1 | < 0.1 | –
16 | COC(=O)N[C@H](C(=O)N1CCC[C@H]1c1nc(-c2ccc(-c3cc(Cl)c(NC(=O)c4ccc(N5C[C@H](C)N(C(=O)c6c[nH]cn6)C[C@H]5C)nc4)cc3C(F)(F)F)cc2)c[nH]1)C(C)C [Example 65] | < 0.1 | < 0.1 | –
